In patent US20230109801A1 (Blue Oak Pharmaceuticals, Inc., priority 2020, published 2023):
Counter-ions that a name gives are not always drawn.

Test system: mice
Test: SmartCube in vivo neuropharmacological behavioral assay
Outline: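 Mice dosed i.p. with compound in Pharmasolve (NMP) 15 min before automated video capture of behavior; doses e.g. 0.3–30 mg/kg. Behavioral signature compared with reference-drug classes, giving per-class probability (0–100, 0 = LOQ); MED = lowest dose with ≥50% total activity.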

[1] = SmartCube, i.p. 15 min before test, at the MED

Compound: CC[C@@H](C)N1C2CCC1c1ccccc12 [Compound 33, 11-[(2R)-Butan-2-yl]-11-azatricyclo[6.2.1.0^2,7]undeca-2,4,6-triene hydrochloride]
- minimal effective dose (Mus musculus, ip, dose having 50% or more total activity in SmartCube, i.p., read-out: MED (minimal effective dose)): 1 to 10 mg/kg
- AD: antidepressant, percent probability [1]: + (LOQ ≤ X < 5%)
- AG: analgesic, percent probability [1]: + (LOQ ≤ X < 5%)
- AP: antipsychotic, percent probability [1]: + (LOQ ≤ X < 5%)
- AX: anxiolytic, percent probability [1]: ++ (5% ≤ X < 25%)
- CE: cognitive enhancer, percent probability [1]: + (LOQ ≤ X < 5%)
- HA: hallucinogenic, percent probability [1]: + (LOQ ≤ X < 5%)
- MS: mood stabilizer, percent probability [1]: + (LOQ ≤ X < 5%)
- PS, percent probability [1]: ++ (5% ≤ X < 25%)
- SD: sedative hypnotic, percent probability [1]: + (LOQ ≤ X < 5%)
- SE: side effects, percent probability [1]: + (LOQ ≤ X < 5%)
- UN: uncharacterized CNS activity, percent probability [1]: ++++ (50% ≤ X <1 00%)
- XG: anxiogenic, percent probability [1]: + (LOQ ≤ X < 5%)
